Among the data in patent US6667316B1, “Pharmaceutically active isoindoline derivatives” (Celgene Corporation, priority 1999, dated 2003) are melting point values, retold here.

Usually melting point stands for the temperature of the solid-liquid transition. For the compound `CCOc1cc(C(CS(C)(=O)=O)N2C(=O)c3ccc([N+](=O)[O-])c([N+](=O)[O-])c3C2=O)ccc1OC` (centres unmarked), the melting point was 122 to 124 °C. As for `CCOc1cc(C(CS(C)(=O)=O)N2C(=O)c3cccc(NC(=O)C(C)N(C)C)c3C2=O)ccc1OC.Cl` (centres unmarked), the figure is 138 to 140 °C. The compound `CCOc1cc([C@H](CS(C)(=O)=O)N2C(=O)c3cccc(NC(=O)CN(C)C)c3C2=O)ccc1OC.Cl` displayed a melting point of 192 to 194 °C. The compound `CCOc1cc([C@@H](CS(C)(=O)=O)N2C(=O)c3cccc(NC(=O)CN(C)C)c3C2=O)ccc1OC.Cl` displayed a melting point of 202 to 204 °C.

`COc1ccc(C(CS(C)(=O)=O)N2C(=O)c3cccc(NC(=O)CN(C)C)c3C2=O)cc1OC.Cl` (centres unmarked) returned a melting point of 178 to 180 °C. Regarding `CCOc1cc(C(CS(C)(=O)=O)N2Cc3cccc(NC(=O)CN(C)C)c3C2=O)ccc1OC.Cl` (centres unmarked), the melting point was in the range of 145 to 147 °C. On to `CCOc1cc(C(CC(=O)N(C)C)N2C(=O)c3cccc(NC(=O)CN(C)C)c3C2=O)ccc1OC.Cl` (centres unmarked), for which the melting point fell in the range of 92 to 94 °C.

`CCOc1cc([C@@H](CC(=O)N(C)C)N2C(=O)c3cccc(NC(=O)CN(C)C)c3C2=O)ccc1OC.Cl` returned a melting point of 122 to 124 °C. Under `CCOc1cc(C(CS(C)(=O)=O)N2C(=O)c3ccc(N)c(N)c3C2=O)ccc1OC` (centres unmarked) [Example 2, 2-[1-(3-Ethoxy-4-methoxyphenyl)-2-methylsulfonylethyl]-4,5-diaminoisoindoline-1,3-dione] stands 205 to 207 °C; under `CCOc1cc(C(CS(C)(=O)=O)N2C(=O)c3cccc(NC(=O)C4CC4)c3C2=O)ccc1OC` (centres unmarked) [Example 7, Cyclopropyl-N-{2-[1-(3-ethoxy-4-methoxyphenyl)-2-methylsulfonylethyl]-1,3-dioxoisoindolin-4-yl}carboxamide], 153 to 155 °C. On to `CCOc1cc(C(CS(C)(=O)=O)N2C(=O)c3cccc(NC(=O)CCl)c3C2=O)ccc1OC` (centres unmarked) [Example 8, 2-Chloro-N-{2-[1-(3-ethoxy-4-methoxyphenyl)-2-methylsulfonylethyl]-1,3-dioxoisoindolin-4-yl}acetamide], for which the melting point was 166 to 168 °C. As to `CCOc1cc(C(CS(C)(=O)=O)N2C(=O)c3cccc(NC(=O)CN)c3C2=O)ccc1OC` (centres unmarked) [Example 9, 2-Amino-N-{2-[1-(3-ethoxy-4-methoxyphenyl)-2-methylsulfonylethyl]-1,3-dioxoisoindolin-4-yl}acetamide], the melting point lay within 111 to 112 °C.

For `CCOc1cc(C(CS(C)(=O)=O)N2C(=O)c3cccc(NC(=O)C(F)(F)F)c3C2=O)ccc1OC` (centres unmarked) [Example 11, N-{2-[1-(3-ethoxy-4-methoxyphenyl)-2-methylsulfonylethyl]-1,3-dioxoisoindolin-4-yl}-2,2,2-trifluoroacetamide], the melting point was 130 to 132 °C. `CCOc1cc(C(CS(C)(=O)=O)N2C(=O)c3cccc(CONC=O)c3C2=O)ccc1OC` (centres unmarked) [Example 12, N-{2-[1-(3-Ethoxy-4-methoxyphenyl)-2-methylsulfonylethyl]-1,3-dioxoisoindolin-4-yl}methoxycarboxamide] came in with a melting point of 178 to 180 °C. Under `CCOc1cc(C(CS(C)(=O)=O)N2C(=O)c3cccc(-c4nnc(C)o4)c3C2=O)ccc1OC` (centres unmarked) [Example 15, 2-[1-(3-Ethoxy-4-methoxyphenyl)-2-methylsulfonylethyl]-4-(5-methyl-1,3,4-oxadiazol-2-yl)isoindoline-1,3-dione] stands 99 to 101 °C. Compound `CCOc1cc(C(CC(C)O)N2C(=O)c3cccc(NC(C)=O)c3C2=O)ccc1OC` (centres unmarked) [Example 24, N-{2-[1-(3-ethoxy-4-methoxyphenyl)-3-hydroxybutyl]-1,3-dioxoisoindolin-4-yl}acetamide] displayed a melting point of 132 to 134 °C. `CCOc1cc(C(CC(C)=O)N2C(=O)c3cccc(NC(C)=O)c3C2=O)ccc1OC` (centres unmarked) [Example 25, N-{2-[1-(3-Ethoxy-4-methoxyphenyl)-3-oxobutyl]-1,3-dioxoisoindolin-4-yl}acetamide] yielded a melting point of 128 to 129 °C. Under `CCOc1cc([C@@H](CC(C)=O)N2C(=O)c3cccc(NC(C)=O)c3C2=O)ccc1OC` [Example 27, N-{2-[1R-(3-ethoxy-4-methoxyphenyl)-3-oxobutyl]-1,3-dioxoisoindolin-4-yl}acetamide] stands 81 to 83 °C; under `CCOc1cc(C(CS(C)(=O)=O)N2C(=O)c3cccc(NC(=O)C4CCCC4)c3C2=O)ccc1OC` (centres unmarked) [Example 45, Cyclopentyl-N-{2-[1-(3-ethoxy-4-methoxyphenyl)-2-(methylsulfonyl)ethyl]-1,3-dioxoisoindolin-4-yl}carboxamide], 134 to 136 °C.

The compound `CCOc1cc(C(CS(C)(=O)=O)N2C(=O)c3cccc(NC(=O)CCN(C)C)c3C2=O)ccc1OC` (centres unmarked) [Example 46, 3-(Dimethylamino)-N-{2-[1-(3-ethoxy-4-methoxyphenyl)-2-(methylsulfonyl)ethyl]-1,3-dioxoisoindolin-4-yl}propanamide] had a melting point of 163 to 165 °C. Under `CCOc1cc([C@@H](CS(C)(=O)=O)N2C(=O)c3cccc(NC(=O)C4CC4)c3C2=O)ccc1OC` [Example 51, Cyclopropyl-N-{2-[(1S)-1-(3-ethoxy-4-methoxyphenyl)-2-(methylsulfonyl)ethyl]-1,3-dioxoisoindolin-4-yl}carboxamide] stands 140 to 141 °C; under `COc1ccc(C(CS(C)(=O)=O)N2C(=O)c3cccc(NC(=O)C4CC4)c3C2=O)cc1OC` (centres unmarked) [Example 54, Cyclopropyl-N-{2-[1-(3,4-dimethoxyphenyl)-2-(methylsulfonyl)ethyl]-1,3-dioxoisoindolin-4-yl}carboxamide], 130 to 132 °C.

In turn, `CCOc1cc([C@@H](CC(=O)N(C)C)N2Cc3cccc(NC(C)=O)c3C2=O)ccc1OC` [Example 59, (3R)-3-[7-(Acetylamino)-1-oxoisoindolin-2-yl]-3-(3-ethoxy-4-methoxyphenyl)-N,N-dimethylpropanamide] registered a melting point of 88 to 90 °C. As for `CCOc1cc([C@@H](CC(=O)N(C)C)N2Cc3cccc(NC(=O)C4CC4)c3C2=O)ccc1OC` [Example 60, (3R)-3-[7-(Cyclopropylcarbonylamino)-1-oxoisoindolin-2-yl]-3-(3-ethoxy-4-methoxyphenyl)-N,N-dimethylpropanamide], the figure is 92 to 94 °C. In the case of `CCOc1cc(C(CS(C)(=O)=O)N2C(=O)c3cccc(CNC(C)=O)c3C2=O)ccc1OC` (centres unmarked) [Example 66, N-({2-[1-(3-Ethoxy-4-methoxyphenyl)-2-(methylsulfonyl)ethyl]-1,3-dioxoisoindolin-4-yl}methyl)acetamide], the melting point fell in the range of 84 to 86 °C. Under `CCOc1cc(C(CS(C)(=O)=O)N2C(=O)c3cccc(N(S(C)(=O)=O)S(C)(=O)=O)c3C2=O)ccc1OC` (centres unmarked) [Example 69, 4-[Bis(methylsulfonyl)amino]-2-[1-(3-ethoxy-4-methoxyphenyl)-2-(methyl-sulfonyl)ethyl]isoindoline-1,3-dione] stands 277 to 279 °C.

The compound `CCOc1cc(C(CC(=O)CC)N2C(=O)c3cccc(NC(C)=O)c3C2=O)ccc1OC` (centres unmarked) [Example 72, N-{2-[1-(3-Ethoxy-4-methoxyphenyl)-3-oxopentyl]1,3-dioxoisoindolin-4-yl}acetamide] yielded a melting point of 137 to 139 °C. `COc1ccc(C(CC(C)=O)N2C(=O)c3cccc(NC(C)=O)c3C2=O)cc1OC1CCCC1` (centres unmarked) [Example 76, N-{2-[1-(3-Cyclopentyloxy-4-methoxyphenyl)-3-oxobutyl]-1,3-dioxoisoindolin-4-yl}acetamide] came in with a melting point of 145 to 147 °C. In turn, `COc1ccc(C(CC(C)=O)N2C(=O)c3cccc(N(S(C)(=O)=O)S(C)(=O)=O)c3C2=O)cc1OC` (centres unmarked) [Example 78, 2-[1-(3,4-Dimethoxyphenyl)-3-oxobutyl]-4-[bis(methylsulfonyl)amino]isoindoline-1,3-dione] came in with a melting point of 194 to 196 °C.
